{"source": "patent US12138334B2", "about": "“Antidandruff composition” (Conopco, Inc., priority 2019, dated 2024)", "key": {"Malassezia furfur 14521": {"test_system": "Malassezia furfur 14521", "experiment": "Antifungal activity on M. furfur (resazurin viability, MIC and ΣFIC)", "format": "cell-based", "conditions": "M. furfur 14521, YPD broth, 30° C., 72 hours, resazurin colour", "protocol": "The samples as given in Table 1 were subjected to their anti fungal efficacy on M. furfur as described hereinafter.\nThe test organism used in the assay is Malassezia furfur 14521. The M. furfur were revived from glycerol stock in YPD agar plates (yeast extract peptone dextrose media) containing 1% corn oil. The composition of YPD is yeast extract:10 g/litre, dextrose 20 g/litre, Peptone 20 g/litre and agarose 0.15%. The plates were incubated at 30° C. for 72 hours for forming fungal colonies. A suspension culture of M. furfur was made using the colonies from plates in YPD broth. The optical density of the suspension culture was adjusted to 0.6 using spectrophotometer. This suspension was diluted in the ratio of 1:10 using YPD broth and 100 μl of this culture was added into each well of 96 well test plate. A stock solution of 40× strength of piroctone olamine was prepared for each of the concentrations tested eg for 0.0.001% test concentration of piroctone olamine a stock of 0.04% was prepared in DMSO (dimethyl sulphoxide). 5 μl of piroctone olamine was added to 100 μl of M. furfur culture. A stock solution of 4× strength of itaconic acid or sodium benzoate was prepared for each of the concentrations tested e.g. for 0.0.001% test concentration of itaconic acid or sodium benzote a stock of 0.004% was prepared in YPD broth. 50 μl of itaconic acid or sodium benzoate was added to 100 μl of M. furfur culture. In wells containing only one test ingredient, (itaconic acid or sodium benzoate only) 50 μl of test ingredient was added to 100 μl of fungal culture and then made up the volume to 200 μl with YPD broth. In wells containing only piroctone olamine 5 μl of piroctone olamine was added to 100 μl of fungal culture and then made up the volume to 200 μl with YPD broth. […] The anti-fungal efficacy of the ingredient or combination of ingredients is calculated based on the colour development. […]\nThe combinations of test ingredients with synergistic anti-fungal benefits were evaluated using ΣFIC method. The ΣFIC of the combinations were calculated using the following formula: […]"}, "[1]": {"conditions": "cited from earlier work"}}, "note": "Structures can show the parent of a compound that is named as a salt.", "data": [{"smiles": "C=C(CC(=O)OC)C(=O)OC", "note": "[Dimethyl itaconate]", "values": [{"measurement": "Minimum inhibitory concentration (MIC)", "setting": "Malassezia furfur 14521", "result": 0.5, "unit": "wt %"}]}, {"smiles": "Cc1cc(CC(C)CC(C)(C)C)n(O)c(=O)c1", "note": "(centres unmarked) [Piroctone olamine, 1-Hydroxy-4-methyl-6-(2,4,4-trimethylpentyl)-2-(1H)pyridinone,2-aminoethanol salt]", "values": [{"measurement": "solubility in 10% ethanol in water", "setting": "[1]; 10% ethanol in water", "result": "soluble"}, {"measurement": "solubility in solution containing surfactants in water or in 1%-10% ethanol", "setting": "[1]; solution containing surfactants in water or in 1%-10% ethanol", "result": "soluble"}, {"measurement": "Minimum inhibitory concentration (MIC)", "setting": "Malassezia furfur 14521", "result": 0.002, "unit": "wt %"}]}, {"smiles": "O=C([O-])c1ccccc1.[Na+]", "note": "[Sodium benzoate]", "values": [{"measurement": "Minimum inhibitory concentration (MIC)", "setting": "Malassezia furfur 14521", "result": 0.5, "unit": "wt %"}]}]}
